Data from PubChem BioAssay (NCI).
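Five concentrations, 48 hours, 96-well plates. GI50 marks 50% less growth. The concentration for full growth arrest is given as TGI.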

Columns and labels:
Assay in all cases: DTP human tumour cell line panel, 48 h
[1] = system: UACC-257 melanoma
[2] = system: CCRF-CEM leukemia
[3] = system: LOX IMVI melanoma
[4] = system: MOLT-4 leukemia
[5] = system: SK-MEL-5 melanoma
[6] = system: COLO 205 colon
[7] = system: TK-10 renal
[8] = system: RXF 393 renal
[9] = system: PC-3 prostate
[10] = system: HOP-92 NSCLC

| Compound | TGI [1] [µM] | TGI [2] [µM] | TGI [3] [µM] | TGI [4] [µM] | TGI [5] [µM] | TGI [6] [µM] | TGI [7] [µM] | TGI [8] [µM] | GI50 [1] [µM] | GI50 [2] [µM] | GI50 [4] [µM] | GI50 [5] [µM] | GI50 [6] [µM] | GI50 [7] [µM] | GI50 [8] [µM] | GI50 [9] [µM] | TGI [9] [µM] | TGI [10] [µM] | GI50 [3] [µM] | GI50 [10] [µM] |
| --- | --- | --- | --- | --- | --- | --- | --- | --- | --- | --- | --- | --- | --- | --- | --- | --- | --- | --- | --- | --- |
| CNS(=O)(=O)NN(C)S(=O)(=O)c1ccc(Br)cc1 | > 100 | > 100 | > 100 | > 100 | > 100 | > 100 | > 100 | > 100 | – | – | – | – | – | – | – | – | – | – | – | – |
| Nc1ncc(-c2ccc(C(F)(F)F)cc2)c(NC2CCCCCC2)n1 | > 100 | 52.8 | – | 81.5 | 35 | 36.7 | > 100 | 88 | 22.3 | 15.4 | 23.3 | 12.3 | 19.5 | 54.5 | 16.1 | 25.4 | > 100 | – | – | – |
| O[C@]12CCCC[C@H]1CCC2 | > 100 | > 100 | > 100 | > 100 | > 100 | > 100 | > 100 | > 100 | – | – | – | – | – | – | – | – | – | > 100 | – | – |
| CC(=O)O[C@@H]1CC(C)C2CC2C2=C(C(O)OC2O)[C@@H]1C(C)CCC=C(C)C (stereo partly specified) | 62.9 | 51.9 | 40.9 | 54.5 | 60.6 | 32.5 | 90 | 34.8 | – | – | – | – | – | – | – | – | – | 35.5 | – | – |
| COc1ccc(/C=C2\CNC/C(=C\c3ccc(OC)cc3)C2=O)cc1 | > 100 | 44.8 | 21.1 | > 100 | > 100 | > 100 | > 100 | 53.8 | – | – | – | – | – | – | – | – | – | > 100 | – | – |
| NC1CCC[C@@H](O)[C@H]1O (stereo partly specified) | > 100 | > 100 | > 100 | – | > 100 | > 100 | > 100 | – | – | – | – | – | – | > 100 | – | – | > 100 | – | – | – |
| N#CC1(c2nc3ccccc3o2)C(=O)C(=O)N(c2ccc(Cl)c(Cl)c2)C(=O)C1=O | > 100 | > 100 | > 100 | > 100 | > 100 | > 100 | > 100 | > 100 | – | – | – | – | – | – | – | – | – | > 100 | – | – |
| Cc1ccc(C2=Nc3ccccc3NC(=O)C2)cc1 | > 100 | > 100 | > 100 | > 100 | > 100 | > 100 | > 100 | > 100 | – | – | – | – | – | – | – | – | – | > 100 | – | – |
| O=Cc1[nH]c2ccccc2c1Br | 67.4 | 99.2 | 75.7 | 68.6 | 31.1 | 34.7 | 74.3 | 67.8 | – | – | – | – | – | – | – | – | – | 66.8 | – | – |
| CCCCC(=O)[O-].N.N.N.N.N.[Co+3].[O-][Cl+3]([O-])([O-])[O-] | > 100 | > 100 | > 100 | > 100 | > 100 | > 100 | > 100 | – | > 100 | > 100 | > 100 | > 100 | > 100 | > 100 | – | – | – | > 100 | > 100 | > 100 |
| CN(C)c1ccc(/C=C2\N=C(c3ccc(N)cc3)OC2=O)cc1 | > 100 | > 100 | > 100 | > 100 | > 100 | > 100 | > 100 | – | – | – | – | – | – | – | – | – | – | > 100 | – | – |
| CC[O-].CC[O-].O=Nc1ccc2cc([O-])ccc2c1.O=Nc1ccc2cc([O-])ccc2c1.[Ti+4] | 3.14 | > 27.3 | 4.14 | – | – | 6.54 | 8.17 | – | 1.61 | 2.71 | – | – | 2.2 | 3.67 | – | – | – | 6.1 | 1.66 | 1.96 |
| C=CCN=C1N=C(CC(=O)OCC)CS1 | > 100 | > 100 | > 100 | – | > 100 | > 100 | > 100 | > 100 | – | – | – | – | – | – | – | – | – | > 100 | – | – |
| Cc1c(C(=O)CC(=O)C(=O)Nc2cccc(C(F)(F)F)c2)[n+](=O)c2ccccc2n1[O-] | 6.73 | 7.24 | 12.7 | 7.56 | 14 | 13.4 | 79.7 | 39.5 | – | – | – | – | – | – | – | – | – | 38.9 | – | – |
| Cc1ccc(S(=O)(=O)OCC23CCC(C4CC42)C2CC23)cc1 (stereo unspecified) | 89.1 | > 100 | > 100 | > 100 | > 100 | > 100 | > 100 | – | – | – | – | – | – | – | – | – | – | > 100 | – | – |
| CN(C)CCCn1c2c3ccccc3ccc2c2oc(=O)c3ccccc3c21 | 19.1 | > 21.3 | 13.3 | 5.19 | 23.6 | 5.87 | 23 | 2.75 | – | – | – | – | – | – | – | – | – | 45.7 | – | – |
